Data: patent EP4247399B1, “COMPOSITION COMPRISING NATURAL EXTRACTS AND USES THEREOF” (Esserre Pharma Srl, priority 2020, dated 2022)

Molecular target: T1, HMG-CoA reductase (Homo sapiens, UniProt P04035)
T1 construct: purchased Sigma-Aldrich CS1090
T1 sequence (P04035 426-888 limits assumed): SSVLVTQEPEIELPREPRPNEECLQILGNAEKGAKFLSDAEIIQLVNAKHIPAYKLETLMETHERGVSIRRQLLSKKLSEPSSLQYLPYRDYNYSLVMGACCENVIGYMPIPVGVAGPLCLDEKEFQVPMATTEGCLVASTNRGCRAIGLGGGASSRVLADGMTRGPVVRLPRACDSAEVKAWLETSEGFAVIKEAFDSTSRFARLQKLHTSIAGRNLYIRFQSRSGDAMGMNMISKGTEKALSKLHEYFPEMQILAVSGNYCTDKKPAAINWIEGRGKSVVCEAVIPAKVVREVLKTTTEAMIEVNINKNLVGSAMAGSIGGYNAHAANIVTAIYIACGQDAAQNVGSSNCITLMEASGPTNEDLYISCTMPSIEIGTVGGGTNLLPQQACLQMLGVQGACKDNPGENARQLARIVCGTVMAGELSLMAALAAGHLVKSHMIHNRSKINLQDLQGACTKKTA
Assay: HMG-CoA reductase inhibition test (HMG-CoA Reductase Assay Kit, decrease in absorbance at 340 nm)
Type: biochemical
Details: positive control
Description: The purpose of the test is to evaluate the hypocholesterolemic activity of the test samples by determining the inhibition of the enzyme 3-hydroxy-3-methylglutaryl-CoA reductase (HMG-CoA reductase).
The test for the HMG-CoA reductase enzyme inhibitory capacity was performed using the special kit (HMG-CoA Reductase Assay Kit, Catalogue Number CS1090, Sigma-Aldrich) and related experimental protocol.
The experiments were carried out in triplicate.
5 mL of buffer were added to 50 mg of the test sample and the solution obtained was then suitably filtered and used for the test.
A 100 µM Pravastatin solution (0.042 mg/mL, Sigma Aldrich) was used as a positive control.
The samples thus prepared were stirred for 10 seconds. Absorbance was then measured at 340 nm for 10 minutes while maintaining the samples at 37°C.
The ability to inhibit enzyme activity was then expressed as percent inhibition and calculated according to the following Equation (1): %Hinibition = ((ΔAControl −ΔAsample)/(ΔAControl)) × 100% [formula] where the value of ΔA is given by the difference between the absorbance recorded at the start time and that recorded after 10 minutes for the control and for the sample respectively. […]

## CC[C@H](C)C(=O)O[C@H]1C[C@H](O)C=C2C=C[C@H](C)[C@H](CC[C@@H](O)C[C@@H](O)CC(=O)O)[C@H]21 [Pravastatin]
Pravastatin 0.01 mg/mL (10 µg/mL)
  inhibition at 10 µg/mL: 99.8%
Pravastatin 0.042 mg/ml (100 µM)
  inhibition at 100 µM: 99.6 ± 1.1%
